In the NIST ThermoML archive (doi:10.1016/j.tca.2012.01.013):

Legend:
[1] = xn = mol fraction of the nth substance listed; conditions: 101 kPa, Liquid, Vibrating tube method
[2] = refractive index (Na D-line) (dimensionless); xn = mol fraction of the nth substance listed; conditions: 101 kPa, Liquid, Standard Abbe refractometry

COC(=O)CCCCC(=O)OC [dimethyl 1,6-hexanedioate] + CCC(C)O
Conditions	mass density, [1] [kg/m3]	refractive index, [2]
288.15 K, x1 = 0.1	851.006	1.40371
288.15 K, x1 = 0.2001	886.929	1.40787
288.15 K, x1 = 0.3	918.373	1.41161
288.15 K, x1 = 0.4	946.216	1.41507
288.15 K, x1 = 0.5003	971.377	1.41815
288.15 K, x1 = 0.6	994.171	1.42105
288.15 K, x1 = 0.6999	1014.77	1.42368
288.15 K, x1 = 0.8005	1033.71	1.42612
288.15 K, x1 = 0.8999	1050.86	1.42837
288.15 K, x1 = 1	1066.79	1.4305
293.15 K, x1 = 0.1	846.719	1.40153
293.15 K, x1 = 0.2001	882.468	1.4057
293.15 K, x1 = 0.3	913.786	1.40945
293.15 K, x1 = 0.4	941.538	1.4129
293.15 K, x1 = 0.5003	966.636	1.41602
293.15 K, x1 = 0.6	989.387	1.41891
293.15 K, x1 = 0.6999	1009.96	1.42156
293.15 K, x1 = 0.8005	1028.88	1.42403
293.15 K, x1 = 0.8999	1046.01	1.42628
293.15 K, x1 = 1	1061.93	1.42842
298.15 K, x1 = 0.1	842.377	1.39933
298.15 K, x1 = 0.2001	877.96	1.40348
298.15 K, x1 = 0.3	909.164	1.40724
298.15 K, x1 = 0.4	936.838	1.41071
298.15 K, x1 = 0.5003	961.876	1.41385
298.15 K, x1 = 0.6	984.59	1.41676
298.15 K, x1 = 0.6999	1005.13	1.41943
298.15 K, x1 = 0.8005	1024.03	1.42191
298.15 K, x1 = 0.8999	1041.15	1.4242
298.15 K, x1 = 1	1057.06	1.42636
303.15 K, x1 = 0.1	837.975	1.39709
303.15 K, x1 = 0.2001	873.411	1.40124
303.15 K, x1 = 0.3	904.511	1.405
303.15 K, x1 = 0.4	932.113	1.40851
303.15 K, x1 = 0.5003	957.1	1.41165
303.15 K, x1 = 0.6	979.781	1.4146
303.15 K, x1 = 0.6999	1000.3	1.4173
303.15 K, x1 = 0.8005	1019.19	1.41981
303.15 K, x1 = 0.8999	1036.29	1.42211
303.15 K, x1 = 1	1052.18	1.42429
308.15 K, x1 = 0.1	833.506	1.39479
308.15 K, x1 = 0.2001	868.81	1.39899
308.15 K, x1 = 0.3	899.82	1.40278
308.15 K, x1 = 0.4	927.355	1.4063
308.15 K, x1 = 0.5003	952.301	1.40948
308.15 K, x1 = 0.6	974.955	1.41244
308.15 K, x1 = 0.6999	995.457	1.41515
308.15 K, x1 = 0.8005	1014.33	1.4177
308.15 K, x1 = 0.8999	1031.43	1.42004
308.15 K, x1 = 1	1047.31	1.42222
313.15 K, x1 = 0.1	828.965	1.39245
313.15 K, x1 = 0.2001	864.16	1.39669
313.15 K, x1 = 0.3	895.087	1.40049
313.15 K, x1 = 0.4	922.569	1.40404
313.15 K, x1 = 0.5003	947.474	1.40726
313.15 K, x1 = 0.6	970.109	1.41026
313.15 K, x1 = 0.6999	990.598	1.41301
313.15 K, x1 = 0.8005	1009.47	1.41557
313.15 K, x1 = 0.8999	1026.55	1.41795
313.15 K, x1 = 1	1042.43	1.42017
318.15 K, x1 = 0.1	824.35	1.39013
318.15 K, x1 = 0.2001	859.451	1.39438
318.15 K, x1 = 0.3	890.312	1.39825
318.15 K, x1 = 0.4	917.75	1.4018
318.15 K, x1 = 0.5003	942.626	1.40503
318.15 K, x1 = 0.6	965.245	1.40808
318.15 K, x1 = 0.6999	985.726	1.41088
318.15 K, x1 = 0.8005	1004.59	1.41348
318.15 K, x1 = 0.8999	1021.67	1.41588
318.15 K, x1 = 1	1037.54	1.41819
323.15 K, x1 = 0.1	819.659	1.38776
323.15 K, x1 = 0.2001	854.686	1.39207
323.15 K, x1 = 0.3	885.493	1.39597
323.15 K, x1 = 0.4	912.894	1.39955
323.15 K, x1 = 0.5003	937.752	1.40283
323.15 K, x1 = 0.6	960.363	1.40592
323.15 K, x1 = 0.6999	980.838	1.40875
323.15 K, x1 = 0.8005	999.701	1.41138
323.15 K, x1 = 0.8999	1016.78	1.41382
323.15 K, x1 = 1	1032.64	1.41614

COC(=O)CCCCC(=O)OC [dimethyl 1,6-hexanedioate] + CCC(C)=O
Conditions	mass density, [1] [kg/m3]	refractive index, [2]
288.15 K, x1 = 0.1002	855.132	1.3909
288.15 K, x1 = 0.2002	893.327	1.39827
288.15 K, x1 = 0.3002	926.063	1.40453
288.15 K, x1 = 0.4004	954.409	1.40995
288.15 K, x1 = 0.5001	979.016	1.41452
288.15 K, x1 = 0.5999	1000.72	1.41853
288.15 K, x1 = 0.6998	1020.03	1.42204
288.15 K, x1 = 0.7994	1037.28	1.42515
288.15 K, x1 = 0.8997	1052.86	1.42797
288.15 K, x1 = 1	1066.79	1.4305
293.15 K, x1 = 0.1002	849.982	1.38847
293.15 K, x1 = 0.2002	888.227	1.39586
293.15 K, x1 = 0.3002	921.006	1.40221
293.15 K, x1 = 0.4004	949.39	1.40768
293.15 K, x1 = 0.5001	974.03	1.41229
293.15 K, x1 = 0.5999	995.763	1.41634
293.15 K, x1 = 0.6998	1015.1	1.41989
293.15 K, x1 = 0.7994	1032.37	1.42303
293.15 K, x1 = 0.8997	1047.98	1.42587
293.15 K, x1 = 1	1061.93	1.42842
298.15 K, x1 = 0.1002	844.812	1.38601
298.15 K, x1 = 0.2002	883.111	1.39346
298.15 K, x1 = 0.3002	915.937	1.39988
298.15 K, x1 = 0.4004	944.361	1.4054
298.15 K, x1 = 0.5001	969.035	1.41005
298.15 K, x1 = 0.5999	990.798	1.41416
298.15 K, x1 = 0.6998	1010.17	1.41774
298.15 K, x1 = 0.7994	1027.45	1.42091
298.15 K, x1 = 0.8997	1043.08	1.42378
298.15 K, x1 = 1	1057.06	1.42636
303.15 K, x1 = 0.1002	839.62	1.38348
303.15 K, x1 = 0.2002	877.976	1.39104
303.15 K, x1 = 0.3002	910.852	1.39751
303.15 K, x1 = 0.4004	939.32	1.4031
303.15 K, x1 = 0.5001	964.032	1.4078
303.15 K, x1 = 0.5999	985.828	1.41196
303.15 K, x1 = 0.6998	1005.23	1.41557
303.15 K, x1 = 0.7994	1022.54	1.41878
303.15 K, x1 = 0.8997	1038.19	1.42168
303.15 K, x1 = 1	1052.18	1.42429
308.15 K, x1 = 0.1002	834.401	1.38097
308.15 K, x1 = 0.2002	872.82	1.38859
308.15 K, x1 = 0.3002	905.75	1.39515
308.15 K, x1 = 0.4004	934.263	1.40079
308.15 K, x1 = 0.5001	959.015	1.40555
308.15 K, x1 = 0.5999	980.845	1.40974
308.15 K, x1 = 0.6998	1000.27	1.41341
308.15 K, x1 = 0.7994	1017.61	1.41667
308.15 K, x1 = 0.8997	1033.29	1.41961
308.15 K, x1 = 1	1047.31	1.42222
313.15 K, x1 = 0.1002	829.151	1.37832
313.15 K, x1 = 0.2002	867.64	1.38611
313.15 K, x1 = 0.3002	900.629	1.39277
313.15 K, x1 = 0.4004	929.193	1.39848
313.15 K, x1 = 0.5001	953.987	1.4033
313.15 K, x1 = 0.5999	975.853	1.40756
313.15 K, x1 = 0.6998	995.312	1.41126
313.15 K, x1 = 0.7994	1012.68	1.41455
313.15 K, x1 = 0.8997	1028.38	1.41751
313.15 K, x1 = 1	1042.43	1.42017
318.15 K, x1 = 0.1002	823.875	1.37568
318.15 K, x1 = 0.2002	862.438	1.38355
318.15 K, x1 = 0.3002	895.489	1.39031
318.15 K, x1 = 0.4004	924.104	1.39611
318.15 K, x1 = 0.5001	948.941	1.401
318.15 K, x1 = 0.5999	970.845	1.40532
318.15 K, x1 = 0.6998	990.336	1.40909
318.15 K, x1 = 0.7994	1007.74	1.41243
318.15 K, x1 = 0.8997	1023.47	1.41544
318.15 K, x1 = 1	1037.54	1.41819
323.15 K, x1 = 0.1002	818.564	1.37305
323.15 K, x1 = 0.2002	857.21	1.38103
323.15 K, x1 = 0.3002	890.33	1.38784
323.15 K, x1 = 0.4004	919.003	1.39374
323.15 K, x1 = 0.5001	943.887	1.39869
323.15 K, x1 = 0.5999	965.832	1.40307
323.15 K, x1 = 0.6998	985.36	1.40691
323.15 K, x1 = 0.7994	1002.79	1.4103
323.15 K, x1 = 0.8997	1018.55	1.41336
323.15 K, x1 = 1	1032.64	1.41614
